{"source": "patent US7109296B2", "about": "“Human 5-HT3-C protein” (Ortho-McNeil Pharmaceutical, Inc., priority 1999, dated 2006)", "format_in_all_cases": "cell-based", "key": {"human 5-HT3-C": {"target": "T1, human 5-HT3-C (Homo sapiens, UniProt Q8WXA8)", "T1 construct": "Characterization of the Function of Protein Encoded by p5HT3CR in Xenopus oocvtes; expressed in transfected cells; host or cells: Xenopus laevis oocytes injected with in vitro transcribed cRNA (pGEM HE)", "T1 sequence (Q8WXA8 28-447)": "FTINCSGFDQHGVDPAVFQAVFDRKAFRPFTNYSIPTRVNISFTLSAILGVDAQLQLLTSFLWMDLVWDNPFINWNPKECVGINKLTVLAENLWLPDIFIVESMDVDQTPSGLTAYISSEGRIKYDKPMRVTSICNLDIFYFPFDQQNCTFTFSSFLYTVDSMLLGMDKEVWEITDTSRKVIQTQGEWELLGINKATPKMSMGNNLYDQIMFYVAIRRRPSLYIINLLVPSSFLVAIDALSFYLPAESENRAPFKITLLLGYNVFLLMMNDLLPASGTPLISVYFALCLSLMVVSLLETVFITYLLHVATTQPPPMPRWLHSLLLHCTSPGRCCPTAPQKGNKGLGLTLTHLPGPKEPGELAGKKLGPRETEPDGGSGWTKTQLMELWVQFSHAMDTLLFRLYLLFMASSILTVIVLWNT", "test": "Two-electrode voltage clamp, Xenopus oocytes injected with 5-HT3-C cRNA alone", "settings": "oocytes injected with 33.5 ng 5-HT3-C", "protocol": "(§1) Characterization of the Function of Protein Encoded by p5HT3CR in Xenopus oocvtes Xenopus laevis oocytes were prepared and injected using standard methods previously described and known in the art (Fraser et al., 1993). Ovarian lobes from adult female Xenopus laevis (Nasco, Fort Atkinson, Wis.) were teased apart, rinsed several times in nominally Ca-free saline containing (in mM): NaCl 82.5, KCl 2.5, MgCl2 1, HEPES 5, adjusted to pH 7.0 with NaOH(OR-2), and gently shaken in OR-2 containing 0.2% collagenase Type 1 (ICN Biomedicals, Aurora, Ohio) for 2–5 hours. When approximately 50% of the follicular layers were removed, Stage V and VI oocytes were selected and rinsed in media consisting of 75% OR-2 and 25% ND-96. The ND-96 contained (in mM): NaCl 100, KCl 2, MgCl2 1, CaCl2 1.8, HEPES 5, Na pyruvate 2.5, gentamicin (50 ug/ml), adjusted to pH 7.0 with NaOH. […] For in vitro transcription, pGEM HE (Liman et al., 1992) containing human 5-HT3-A (Genbank D49394) or 5-HT3-C cDNA was linearized with NheI and transcribed with T7 RNA polymerase (Stratagene) in the presence of the cap analog m7G(5′)ppp(5′)G. The synthesized cRNA was purified with a Sephadex G-50 spin column. […] Control oocytes were injected with 50 nl of water. Oocytes were incubated for 2–14 days in ND-96 before analysis for expression of the human 5-HT3-C. Incubations and collagenase digestion were carried out at room temperature. Injected oocytes were maintained in 48 well cell culture clusters (Costar, Cambridge, Mass.) at 18° C. Whole cell agonist-induced currents were measured 1–14 days after injection with a conventional two-electrode voltage clamp (GeneClamp500, Axon Instruments, Foster City, Calif.) using standard methods previously described and known in the art (Dascal, 1987). The microelectrodes were filled with 3 M KCl, which had resistances of 1 and 2 MΩ. Cells were continuously perfused with ND96 at 10 ml/min at room temperature unless indicated. Membrane voltage was clamped at −70 mV unless indicated."}, "[1]": {"target": "T2, long form of human 5-HT3-A together with 5-HT3-C (Homo sapiens, UniProt P46098+Q8WXA8)", "T2 construct": "Characterization of the Function of Protein Encoded by p5HT3CR in Xenopus oocvtes; expressed in transfected cells; host or cells: Xenopus laevis oocytes co-injected with cRNAs", "T2 sequence (P46098 24-510 isoform P46098-2)": "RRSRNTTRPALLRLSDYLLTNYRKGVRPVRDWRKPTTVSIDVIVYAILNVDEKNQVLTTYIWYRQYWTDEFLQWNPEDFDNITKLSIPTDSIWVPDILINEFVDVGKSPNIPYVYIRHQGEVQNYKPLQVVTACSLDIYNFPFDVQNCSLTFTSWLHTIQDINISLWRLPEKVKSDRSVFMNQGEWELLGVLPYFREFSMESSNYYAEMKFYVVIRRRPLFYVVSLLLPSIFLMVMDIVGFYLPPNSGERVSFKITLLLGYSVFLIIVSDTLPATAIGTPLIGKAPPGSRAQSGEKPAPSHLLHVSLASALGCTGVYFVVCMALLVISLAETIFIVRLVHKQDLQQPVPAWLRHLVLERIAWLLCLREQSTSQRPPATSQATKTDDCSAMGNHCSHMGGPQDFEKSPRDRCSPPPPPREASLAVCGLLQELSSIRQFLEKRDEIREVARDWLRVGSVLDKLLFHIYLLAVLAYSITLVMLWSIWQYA", "T2 sequence (Q8WXA8 28-447)": "T1 sequence (Q8WXA8 28-447)", "test": "Two-electrode voltage clamp, oocytes co-injected with long form of human 5-HT3-A and 5-HT3-C", "settings": "100 μM; n=2", "protocol": "Characterization of the Function of Protein Encoded by p5HT3CR in Xenopus oocvtes Xenopus laevis oocytes were prepared and injected using standard methods previously described and known in the art (Fraser et al., 1993). Ovarian lobes from adult female Xenopus laevis (Nasco, Fort Atkinson, Wis.) were teased apart, rinsed several times in nominally Ca-free saline containing (in mM): NaCl 82.5, KCl 2.5, MgCl2 1, HEPES 5, adjusted to pH 7.0 with NaOH(OR-2), and gently shaken in OR-2 containing 0.2% collagenase Type 1 (ICN Biomedicals, Aurora, Ohio) for 2–5 hours. When approximately 50% of the follicular layers were removed, Stage V and VI oocytes were selected and rinsed in media consisting of 75% OR-2 and 25% ND-96. The ND-96 contained (in mM): NaCl 100, KCl 2, MgCl2 1, CaCl2 1.8, HEPES 5, Na pyruvate 2.5, gentamicin (50 ug/ml), adjusted to pH 7.0 with NaOH. […] Whole cell agonist-induced currents were measured 1–14 days after injection with a conventional two-electrode voltage clamp (GeneClamp500, Axon Instruments, Foster City, Calif.) using standard methods previously described and known in the art (Dascal, 1987). […]"}, "5-HT3-B and 5-HT3-C": {"target": "T3, 5-HT3-B and 5-HT3-C (Homo sapiens, UniProt O95264+Q8WXA8)", "T3 construct": "Characterization of the Function of Protein Encoded by p5HT3CR in Xenopus oocvtes; expressed in transfected cells; host or cells: Xenopus laevis oocytes co-injected with cRNAs", "T3 sequence (O95264 22-441)": "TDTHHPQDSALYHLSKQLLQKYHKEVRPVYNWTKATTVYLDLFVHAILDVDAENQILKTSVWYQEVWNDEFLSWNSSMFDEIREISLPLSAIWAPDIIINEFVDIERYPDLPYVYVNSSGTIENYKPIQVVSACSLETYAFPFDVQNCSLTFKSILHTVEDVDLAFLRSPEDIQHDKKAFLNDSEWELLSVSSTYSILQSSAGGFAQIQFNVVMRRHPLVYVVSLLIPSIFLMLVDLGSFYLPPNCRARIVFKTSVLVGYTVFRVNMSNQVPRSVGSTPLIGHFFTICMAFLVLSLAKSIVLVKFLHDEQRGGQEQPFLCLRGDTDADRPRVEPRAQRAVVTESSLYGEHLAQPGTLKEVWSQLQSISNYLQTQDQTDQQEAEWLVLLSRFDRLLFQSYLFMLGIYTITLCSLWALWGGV", "T3 sequence (Q8WXA8 28-447)": "T1 sequence (Q8WXA8 28-447)", "test": "Two-electrode voltage clamp, oocytes co-injected with 5-HT3-B and 5-HT3-C", "settings": "5-HT3-B 3.3 ng, 5-HT3-C 3.35 ng/oocyte", "protocol": "as §1"}, "[2]": {"target": "T4, 5-HT3-C together with nicotinic ACh receptor a6 subunit (Homo sapiens, UniProt Q15825+Q8WXA8)", "T4 construct": "Characterization of the Function of Protein Encoded by p5HT3CR in Xenopus oocvtes; expressed in transfected cells; host or cells: Xenopus laevis oocytes injected with cRNA", "T4 sequence (Q15825 26-494, one chain of several)": "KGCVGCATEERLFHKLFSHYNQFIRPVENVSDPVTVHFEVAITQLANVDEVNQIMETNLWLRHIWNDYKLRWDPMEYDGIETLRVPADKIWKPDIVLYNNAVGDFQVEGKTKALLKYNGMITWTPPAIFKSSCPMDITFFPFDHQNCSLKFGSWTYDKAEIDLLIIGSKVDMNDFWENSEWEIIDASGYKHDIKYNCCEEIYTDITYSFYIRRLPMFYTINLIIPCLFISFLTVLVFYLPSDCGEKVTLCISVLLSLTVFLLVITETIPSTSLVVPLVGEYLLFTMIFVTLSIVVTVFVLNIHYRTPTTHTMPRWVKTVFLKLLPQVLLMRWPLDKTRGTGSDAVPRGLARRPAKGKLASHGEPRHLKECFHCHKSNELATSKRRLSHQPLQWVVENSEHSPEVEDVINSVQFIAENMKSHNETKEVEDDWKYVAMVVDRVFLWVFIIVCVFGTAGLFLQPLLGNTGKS", "test": "Two-electrode voltage clamp, oocytes injected with 5-HT3-C together with nicotinic ACh receptor α6 subunit", "settings": "10 μM; eight days after injection; 5-HT3-C 0.67 ng, a6 1 ng/oocyte", "protocol": "Characterization of the Function of Protein Encoded by p5HT3CR in Xenopus oocvtes Xenopus laevis oocytes were prepared and injected using standard methods previously described and known in the art (Fraser et al., 1993). Ovarian lobes from adult female Xenopus laevis (Nasco, Fort Atkinson, Wis.) were teased apart, rinsed several times in nominally Ca-free saline containing (in mM): NaCl 82.5, KCl 2.5, MgCl2 1, HEPES 5, adjusted to pH 7.0 with NaOH(OR-2), and gently shaken in OR-2 containing 0.2% collagenase Type 1 (ICN Biomedicals, Aurora, Ohio) for 2–5 hours. When approximately 50% of the follicular layers were removed, Stage V and VI oocytes were selected and rinsed in media consisting of 75% OR-2 and 25% ND-96. The ND-96 contained (in mM): NaCl 100, KCl 2, MgCl2 1, CaCl2 1.8, HEPES 5, Na pyruvate 2.5, gentamicin (50 ug/ml), adjusted to pH 7.0 with NaOH. […] For in vitro transcription, pGEM HE (Liman et al., 1992) containing human 5-HT3-A (Genbank D49394) or 5-HT3-C cDNA was linearized with NheI and transcribed with T7 RNA polymerase (Stratagene) in the presence of the cap analog m7G(5′)ppp(5′)G. The synthesized cRNA was purified with a Sephadex G-50 spin column. Oocytes were injected with 50 nl of the human serotonin 5-HT3-A receptor with or without the 5-HT3-C RNA (0.02 and 0.002–0.2 ng each) or other channel or receptor subunit. Control oocytes were injected with 50 nl of water. Oocytes were incubated for 2–14 days in ND-96 before analysis for expression of the human 5-HT3-C. Incubations and collagenase digestion were carried out at room temperature. Injected oocytes were maintained in 48 well cell culture clusters (Costar, Cambridge, Mass.) at 18° C. Whole cell agonist-induced currents were measured 1–14 days after injection with a conventional two-electrode voltage clamp (GeneClamp500, Axon Instruments, Foster City, Calif.) using standard methods previously described and known in the art (Dascal, 1987). The microelectrodes were filled with 3 M KCl, which had resistances of 1 and 2 MΩ. […]"}, "[3]": {"target": "T5, nicotinic ACh α3β4 receptors (Homo sapiens, UniProt P30926+P32297)", "T5 construct": "expressed in transfected cells; host or cells: Xenopus laevis oocytes injected with cRNA", "T5 sequence (P32297 32-505)": "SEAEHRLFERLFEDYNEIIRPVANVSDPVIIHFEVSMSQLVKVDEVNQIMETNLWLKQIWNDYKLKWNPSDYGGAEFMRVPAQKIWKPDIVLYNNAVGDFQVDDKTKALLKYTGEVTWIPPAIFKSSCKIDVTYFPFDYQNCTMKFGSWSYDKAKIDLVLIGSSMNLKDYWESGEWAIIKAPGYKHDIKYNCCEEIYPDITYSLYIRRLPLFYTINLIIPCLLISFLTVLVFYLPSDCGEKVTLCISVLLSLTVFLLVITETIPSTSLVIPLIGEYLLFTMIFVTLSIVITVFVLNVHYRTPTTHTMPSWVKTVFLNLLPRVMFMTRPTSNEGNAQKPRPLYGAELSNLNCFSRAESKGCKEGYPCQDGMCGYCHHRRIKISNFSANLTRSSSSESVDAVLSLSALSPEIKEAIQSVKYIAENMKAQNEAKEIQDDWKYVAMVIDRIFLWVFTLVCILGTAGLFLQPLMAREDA", "T5 sequence (P30926 22-498)": "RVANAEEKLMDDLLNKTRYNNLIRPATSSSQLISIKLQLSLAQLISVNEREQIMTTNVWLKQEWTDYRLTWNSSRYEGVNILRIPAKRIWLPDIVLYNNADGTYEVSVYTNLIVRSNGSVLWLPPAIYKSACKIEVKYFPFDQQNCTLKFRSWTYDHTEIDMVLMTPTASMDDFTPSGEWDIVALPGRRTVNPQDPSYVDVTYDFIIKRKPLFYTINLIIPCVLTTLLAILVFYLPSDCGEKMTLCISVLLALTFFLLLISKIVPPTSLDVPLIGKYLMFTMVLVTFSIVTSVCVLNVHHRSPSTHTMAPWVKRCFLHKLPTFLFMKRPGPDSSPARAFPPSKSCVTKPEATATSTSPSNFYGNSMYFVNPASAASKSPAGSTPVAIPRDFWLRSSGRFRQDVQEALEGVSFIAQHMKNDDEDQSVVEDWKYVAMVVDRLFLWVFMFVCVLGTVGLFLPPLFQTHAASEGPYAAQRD", "test": "Two-electrode voltage clamp, oocytes expressing nicotinic ACh α3β4 receptors"}, "[4]": {"target": "T6, α3β4 receptors together with 5-HT3-C (Homo sapiens, UniProt P30926+P32297)", "T6 construct": "expressed in transfected cells; host or cells: Xenopus laevis oocytes co-injected with cRNAs", "T6 sequence (P32297 32-505)": "as the sequence (P32297 32-505) above", "T6 sequence (P30926 22-498)": "as the sequence (P30926 22-498) above", "test": "Two-electrode voltage clamp, oocytes expressing nicotinic ACh α3β4 receptors together with 5-HT3-C"}}, "data": [{"smiles": "NC(N)=NC(N)=Nc1ccccc1", "note": "[1-PBG]", "values": [{"measurement": "effect of agonist (agonist-induced current)", "setting": "human 5-HT3-C; 100 μM", "value": "no effect"}, {"measurement": "effect of agonist (agonist-induced current)", "setting": "human 5-HT3-C; 500 μM", "value": "no effect"}, {"measurement": "sensitivity of oocytes to agonist", "setting": "[1]", "value": "insensitive"}]}, {"smiles": "CNCCc1c[nH]c2ccc(O)cc12", "note": "[N-ω-methyl-5-HT]", "values": [{"measurement": "responsiveness of oocytes to agonist", "setting": "5-HT3-B and 5-HT3-C; 100 μM", "value": "unresponsive"}]}, {"smiles": "Clc1ccc(C2CC3CCC2N3)cn1", "note": "(stereo not shown) [epibatidine]", "values": [{"measurement": "responsiveness of oocytes to agonist", "setting": "[2]", "value": "not responsive"}, {"measurement": "Peak currents", "setting": "[3]", "value": "−6.93+/−1.45 nA"}, {"measurement": "Peak currents", "setting": "[4]", "value": "6.49+/−0.69 nA"}, {"measurement": "effect of 5-HT3-C co-injection on epibatidine-activated currents", "setting": "[4]", "value": "no effect"}, {"measurement": "effect of 5-HT3-C on t80, time to peak and degree of desensitization to a second epibatidine stimulus", "setting": "[4]", "value": "no effect"}, {"measurement": "responsiveness of oocytes to agonist", "setting": "5-HT3-B and 5-HT3-C; 10 μM", "value": "unresponsive"}]}]}
